Laboratory results published in patent US20250114313A1, “OLIGO-BENZAMIDE ANALOGS AND THEIR USE IN CANCER TREATMENT” (BOARD OF REGENTS, THE UNIVERSITY OF TEXAS SYSTEM, priority 2022, published 2025).
“Also recorded” adds a separate entry of the source.

Legend:
[1] = tested on: ERα-positive breast cancer cells (MCF-7, ZR-75); assay: MTT cell viability, ERα-positive breast cancer cells; format: cell-based, Human; conditions: Homo sapiens, MCF-7 and ZR-75, read-out: anti-proliferative IC50
Experimental: (§1) Cell viability assays: Cells were seeded in 96-well plates (2×10^3 cells/well) one day before the treatment. Cells were treated with varying concentrations of ERX-41 or ERX-11 analogs for 3-6 days. Then effects of ERX-41 or ERX-11 analogs on cell viability were measured in triplicate or sextuplicate with multiple biological replicates using the WST-1 (Promega), MTT as previously described^33 or CellTiter-Glo 2.0 (Promega) assays.

ERα-positive cell lines = assay: CellTiter-Glo assay, ERα-positive cell lines; format: cell-based; conditions: Homo sapiens, read-out: anti-proliferative IC50, CellTiter-Glo
Experimental: as §1

[2] = tested on: MDA-MB-231 TNBC xenografts; assay: MDA-MB-231 TNBC xenografts, ERX-41; format: in vivo; conditions: oral, 10 mg/kg/day
Experimental: (§2) Animal Studies: All animal experiments were performed using UTHSA and UTSW IACUC approved protocols. For cell based xenograft tumor assays, TNBC cells (2×10^5-2×10^6) were mixed with an equal volume of matrigel and implanted in the mammary fat pads of 6-week-old female athymic nude mice as described^33. BALB/c mice were used for D2A1 syngeneic model. Once tumors reached measurable size, mice were divided into control (vehicle) and ERX-41 (10 mg/kg/oral) treatment groups. Mice bearing TNBC PDX tumors were purchased from Jackson laboratory (TM00089; TM00096; TM00098). TNBC PDX line UTPDX0001 establishment was earlier described^38. WHIM-20 ER+PDX model was purchased from Horizon Labs. OCa-PDX-38 was received from UTHSA ObGyn tissue procurement core. When tumors reached ˜750 mm^3 they were dissected into 2 mm^3 pieces and implanted into the mammary fat pads of 6 weeks old female SCID or NSG mice. When the tumor volume reached ˜200 mm^3, mice were randomized for treatment. The mice were monitored daily for adverse toxic effects and tumor volume was measured every 3-4 days using calipers. For establishing ES2 tumors, ES2/GFP/LUC cells were injected i.p. and tumors were measured twice a week using Xenogen in vivo imaging system. At the end of each experiment, the mice were euthanized, and the tumors were removed, weighed and processed for histological studies and protein analysis. Dose were selected based on pilot MTD study of 10, 50 100 mg/kg of ERX-41 for 14 days using C57BL6 mice. The mice were monitored daily for adverse toxic effects. IHC analysis was conducted as described previously^39 and immunoreactivity was visualized using DAB substrate and counterstained with hematoxylin (Vector Laboratories Inc. Burlingame, CA). Control rabbit IgG staining was used as a negative control. The sections were scored by two independent evaluators blinded to the patient's clinical status.

TNBC cells [3] = assay: Global de novo protein synthesis (puromycin labeled nascent proteins), TNBC cells; format: cell-based, Human; conditions: 1 μM
Experimental: (§3) Western blotting: Whole cell lysates from breast cancer cells were prepared with 2× sample buffer (60 mM Tris-HCl, pH 6.8, 2% sodium dodecyl sulfate, 10% glycerol), and before loading mixed with loading buffer (5% 2-mercaptoethanol, 0.1% bromophenol blue) and boiled for denaturation, as previously described.^33 Proteins were separated by SDS-PAGE and subjected to Western analysis using antibodies. To detect nascent translated proteins, puromycin (final concentration 10 μg/mL) was added into cell plates 30 minutes before harvesting cells. Then samples were subjected to the Western blotting. Nascent proteins were detected by anti-puromycin antibody.

ER Alpha-LBD (GST) = target: T1, ER Alpha-LBD (GST) (Homo sapiens, UniProt P03372); assay: LanthaScreen TR-FRET ER alpha Coactivator Assay, antagonist mode; format: binding; conditions: 2 h incubation
T1 construct: 3.5 nM ER Alpha-LBD (GST); purchased life technologies A15885
T1 sequence (P03372 311-547 limits assumed): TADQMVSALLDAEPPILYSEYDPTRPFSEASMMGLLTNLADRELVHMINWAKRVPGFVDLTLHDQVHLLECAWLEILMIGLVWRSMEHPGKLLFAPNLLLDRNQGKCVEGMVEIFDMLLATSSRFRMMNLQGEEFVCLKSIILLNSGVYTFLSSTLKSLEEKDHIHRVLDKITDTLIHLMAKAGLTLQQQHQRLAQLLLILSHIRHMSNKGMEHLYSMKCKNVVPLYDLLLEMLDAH

[4] = tested on: ERα+ breast PDX (WHIM-20); assay: ERα+ breast PDX WHIM-20; format: in vivo, NSG mice; conditions: 10 mg/kg daily
Experimental: as §2, with “At the end of each experiment, the mice were euthanized, and the tumors were removed, weighed and processed for histological studies and protein analysis. Dose were selected based on pilot MTD study of 10, 50 100 mg/kg of ERX-41 for 14 days using C57BL6 mice.” left out, “IHC analysis was conducted as described previously^39 and immunoreactivity was visualized using DAB substrate and counterstained with hematoxylin (Vector Laboratories Inc. Burlingame, CA). Control rabbit IgG staining was used as a negative control.” left out

[5] = target: T2, lysosomal acid lipase (LAL) protein (Homo sapiens, UniProt P38571); assay: Cellular thermal shift assay, LAL; format: binding; conditions: 10 μM, SUM-159 cells
T2 construct: heat stability of LAL or vinculin protein in SUM-159 cells; endogenous in cells; host or cells: SUM-159
Experimental: Cellular Thermal Shift Assay (CETSA): Cellular Thermal Shift Assays were performed as described previously^36. Briefly, cells were treated with DMSO or 10 μM ERX-41 for 30 min, then trypsinized, pelleted and resuspended in PBS supplemented with Halt protease inhibitor cocktail (Thermo Scientific), with DMSO or 10 μM ERX-41. Resuspended cells were aliquoted into PCR strips. The cells were incubated in thermal cycler (Bio-rad) at gradient temperatures for 3 minutes, followed by incubation at 25° C. for 3 minutes. Then cells were snap-frozen in liquid nitrogen. Freeze-thaw the cells twice using liquid nitrogen. Then transfer samples into Eppendorf tubes, followed by briefly vortex and centrifuge at 20,000 g for 20 minutes at 4° C. Mix cleared cell lysates with ⅓ volume of 4× Laemmli sample buffer. After boiling, cell lysates were resolved in SDS-PAGE followed by western blotting.

TNBC cells [6] = assay: Ca^2+ flux in TNBC cells; format: cell-based; conditions: data not shown
TNBC = assay: ER stress, cell death and lysosomes in TNBC (discussion, no method); format: cell-based
[7] = tested on: SUM-159 cells with LIPA KO; assay: UPR induction and protein synthesis in SUM-159 cells with LIPA KO (RNA-seq, RT-qPCR, western); format: cell-based, Human; conditions: 1 μM, 4 h
Experimental: as §3
Real-time quantitative PCR (RT-qPCR): Total RNA was prepared from breast cancer cells using the RNeasy Mini Kit (Qiagen) according to the manufacturer protocols. Subsequently, total RNAs were reverse transcribed into cDNA using iScript Reverse Transcription Supermix (Bio-rad) and by using SYBR Green on an Illumina Real-Time PCR system.
RNA-sequencing: mRNA-seq sequencing library construction was performed using TruSeq RNA Library Preparation Kit (Illumina) according to the manufacturer's instructions. FASTQ reads from Genomics Core at UTSW were mapped to Human GRCh38 genome using HiSAT2 (RRID:SCR_015530). Differential expression analysis is performed using DEseq2 (RRID:SCR_015687). Abundances of transcripts are calculated using ballgown (Frazee et al. 2014). The values of Fragments Per Kilobase of transcript per Million mapped reads (FPKM) were used for Gene Set Enrichment Analysis (GSEA). GSEA was performed by using the GSEA software (RRID:SCR_005724) and C5 ontology gene sets (14765 gene sets in total). mRNA-seq data from this study are available from NCBI GEO under accession #GSE168800.

T2 sequence (P38571 77-399): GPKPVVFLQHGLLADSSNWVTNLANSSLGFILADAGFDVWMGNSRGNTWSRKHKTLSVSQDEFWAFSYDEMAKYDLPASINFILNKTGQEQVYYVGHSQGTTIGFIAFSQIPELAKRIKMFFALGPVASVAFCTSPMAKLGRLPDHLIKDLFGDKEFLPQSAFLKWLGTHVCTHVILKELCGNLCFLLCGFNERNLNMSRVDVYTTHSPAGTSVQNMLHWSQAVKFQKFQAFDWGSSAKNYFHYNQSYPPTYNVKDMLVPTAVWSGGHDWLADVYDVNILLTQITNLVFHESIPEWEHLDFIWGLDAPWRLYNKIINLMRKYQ

CC(C)COc1cc(C(=O)Nc2ccc(C(=O)N[C@H]3CC[C@H](C)CC3)cc2OCC(C)C)ccc1NC(=O)c1ccc([N+](=O)[O-])c(OCCO)c1 [ERX-41]
IC50 [1]: 100 to 125 nM
IC50 (ERα-positive cell lines): 100 to 125 nM
extirpated tumor weights and sizes at end of study [2]: decreased tumor growth
growth of established xenografts [2]: significantly decreased the growth
overt toxicity, body weights of treated mice [2]: no alterations in body weights
global de novo protein synthesis (TNBC cells [3]): blocked; also recorded: blocks de novo protein synthesis
interaction with ERα LBD (ER Alpha-LBD (GST)): does not interact with ERG LBD
activity against WHIM-20 PDX [4]: has activity against
thermal stability of LAL [5]: stabilize the thermal stability of LAL
Ca^2+ flux within TNBC cells (TNBC cells [6]): not able to induce Ca^2+ flux
changes in lysosomes (TNBC): no significant changes in lysosomes
genes altered by RNA sequencing in LIPA KO cells [7]: no genes significantly altered
